Laboratory results taken from patent publication US20120142609A1, “NON HUMAN ANIMAL MODELS FOR INCREASED RETINAL VASCULAR PERMEABILITY” (priority 2009, published 2012).

System: Müller glial cells
Test: Osmotic Müller cell swelling in acutely isolated retinal slices under hypotonic challenge
Type: cell-based, mouse
Conditions: for effect on osmotic swelling of Müller cells (FIG. 3C): hypotonic challenge
Method: Müller cell swelling: To determine volume changes of Müller glial cells evoked by hypotonic stress, the cross-sectional area of glial cell somata in the inner nuclear layer of retinal slices was measured. Acutely isolated slices (thickness, 1 mm) were prepared from untreated control eyes and from the detached retinal area of operated eyes from C57BL/6 and Dp71-null mice, placed in a perfusion chamber and loaded with the vital dye Mitotracker Orange (10 μM). This dye is selectively taken up by Müller glial cells whereas retinal neurons, astrocytes, and microglial cells remain unstained. The stock solution of the dye was prepared in dimethylsulfoxide and resolved in saline. The slices were examined with a confocal laser scanning microscope LSM 510 Meta (Zeiss, Oberkochen, Germany). Mitotracker Orange was excited at 543 nm, and emission was recorded with a 560 nm long-pass filter. To assure that the maximum soma areas were precisely recorded, the focal plane was continuously adjusted in the course of the experiments.
A gravity-fed system with multiple reservoirs was used to perfuse the recording chamber continuously with extracellular solution; the hypotonic solution and test substances were added by rapid change of the perfusate. The extracellular solution consisted of (in mM) […], 3 KCl, 2 CaCl2, 1 MgCl2, 10 HEPES, and 11 glucose, adjusted to pH 7.4 with Tris. The hypotonic solution (60% of control osmolarity) was made up by adding distilled water. BaCl2 (1 mM) was preincubated for 10 minutes in extracellular solution before application within hypotonic solution. Blocking substances were preincubated for 15 to 45 minutes, and adenosine was administered simultaneously with the hypotonic solution. Swelling experiments were performed at room temperature.
To determine the extent of glial soma swelling, the cross-sectional area of Mitotracker Orange-stained cell bodies in the inner nuclear layer of retinal slices was measured off-line using the image analysis software of the LSM. Bar diagrams display the mean (+SEM) cross-sectional area of cell somata that was measured after 4-minute perfusion with hypotonic solution, in percent of the soma area measured before osmotic challenge (100%).

[1] = control retina from Dp71-null mice

COc1ccc2c(c1)c(CC(=O)O)c(C)n2C(=O)c1ccc(Cl)cc1 [indomethacin]
cross-sectional area of Müller cell somata after 4-minute perfusion with hypotonic solution, in percent of the soma area before osmotic challenge (Müller cells from Dp71-null mice, 10 μM, preincubated, hypotonic solution 60% of control osmolarity): 104.4±1.6%
effect on osmotic swelling of Müller cells (FIG. 3C) [1]: blocked the swelling

[Ba+2].[Cl-].[Cl-] [Ba^2+, barium chloride]
effect on Müller cell soma area under hypotonic challenge (FIG. 3B) [1]: no effect
effect on Müller cell soma area under hypotonic challenge (FIG. 3B) (control retina from wt mice): induced a swelling
cross-sectional area of Müller cell somata after 4-minute perfusion with hypotonic solution, in percent of the soma area before osmotic challenge (slices from control retinas of C57BL/6 (wt) mice, BaCl2 1 mM, 102.0±1.0% without Ba2+): 111.5±1.6%
cross-sectional area of Müller cell somata after 4-minute perfusion with hypotonic solution, in percent of the soma area before osmotic challenge (untreated Dp71-null mice, BaCl2 1 mM, 118.0±2.3% without Ba2+): 122.3+3.6%

Nc1ncnc2c1ncn2[C@@H]1O[C@H](CO)[C@@H](O)[C@H]1O [adenosine]
effect on osmotic swelling of Müller cells (FIG. 3C) [1]: blocked the swelling
cross-sectional area of Müller cell somata after 4-minute perfusion with hypotonic solution, in percent of the soma area before osmotic challenge (untreated retinas from Dp71-null mice, adenosine 10 μM applied with the hypotonic solution (60% of control osmolarity), 120.3±3.8% without adenosine): 103.2±2.2%

O=C(CBr)c1ccc(Br)cc1 [4-bromophenacyl bromide]
cross-sectional area of Müller cell somata after 4-minute perfusion with hypotonic solution, in percent of the soma area before osmotic challenge (Müller cells from Dp71-null mice, 300 μM, preincubated, hypotonic solution 60% of control osmolarity): 103.3±2.1%
effect on osmotic swelling of Müller cells (FIG. 3C) [1]: blocked the swelling
